Assays:
[1] = test system: B16 cells stably harboring a pCMV-NQO1 expression vector; test: Cell survival of NQO1 overexpressing B16 cells; format: cell-based, murine; conditions: 3 hr exposure, survival 48 hr later
Method: (FIG. 1A) NQO1 positive tumor cell lines MC38, TC-1 and Ag104Ld and NQO1 negative cell lines Panc02 and B16 grown in 48-well plates were treated with β-lap (0-8 μM) for a 3 hr followed by washing and replacing medium. Cell viability was determined by Sulforhodamine B (SRB) Assay 4 days later. […] (FIG. 1C) MC38 cells with CRISPR-based NQO1 Knockout (MC38 NQO1KO #5) planted in 96-well plates were exposed to β-lap for 3 hr and cell survival was assessed 48 hr later. […] (FIG. 1E) MC38 cells were exposed to a lethal dose of β-lap (4 μM) for indicated times, then stained with 7-AAD and Annexin V followed by flow cytometry analysis. […] (FIG. 1H) MC38 and B16 NQO1 #1 cells were exposed to β-lap for a 3 hr. Catalase (1000 U/ml) was added and cell survival was assessed 48 hr later. […] Tumor growth was monitored twice a week.
FIGS. 17A-I (related to FIGS. 1A-J). […] (FIG. 17A) NQO1 expression in different murine cancer cell lines was determined by western blotting assay. […] Cell viability was determined by Sulforhodamine B (SRB) Assay 48 hr later. […] Cell viability was determined by SRB Assay 48 hr later. […] Catalase (1000 U/ml) was added and cell viability was assessed 48 hr later. […] Tumor growth was monitored twice a week. […] Data are shown as mean±SEM. **P<0.01, ***P<0.001, ****P<0.0001 determined by unpaired student t-test (FIG. 17G) or two-way ANOVA (FIG. 17H and FIG. 17I). […]

[2] = test system: MC38 cells; test: 7-AAD and Annexin V cell death, flow cytometry; format: cell-based, murine; conditions: lethal dose of β-lap (4 μM)
Method: (FIG. 1A) NQO1 positive tumor cell lines MC38, TC-1 and Ag104Ld and NQO1 negative cell lines Panc02 and B16 grown in 48-well plates were treated with β-lap (0-8 μM) for a 3 hr followed by washing and replacing medium. Cell viability was determined by Sulforhodamine B (SRB) Assay 4 days later. […] (FIG. 1C) MC38 cells with CRISPR-based NQO1 Knockout (MC38 NQO1KO #5) planted in 96-well plates were exposed to β-lap for 3 hr and cell survival was assessed 48 hr later. […] (FIG. 1E) MC38 cells were exposed to a lethal dose of β-lap (4 μM) for indicated times, then stained with 7-AAD and Annexin V followed by flow cytometry analysis. […] (FIG. 1H) MC38 and B16 NQO1 #1 cells were exposed to β-lap for a 3 hr. Catalase (1000 U/ml) was added and cell survival was assessed 48 hr later. (FIG. 1I) C57BL/6 mice (n=5/group) were transplanted with MC38 cells and treated with β-lap (0.03 mg, 0.1 mg or 0.3 mg, intratumorally; or 25 mg/kg, i.v.) every other day for four times. […] Tumor growth was monitored twice a week.
(FIG. 21A) Viability of murine cell lines following IB-DNQ treatment for 4 h. […] (FIGS. 21D-E) DNA double strand break was assessed via comet assay (FIG. 21D) and γH2AX foci/nuclei immunofluorescence (FIG. 21E). (FIG. 21F) MC38 cell death after a 4 h exposure to IB-DNQ was determined by 7AAD and Annexin V staining using flow cytometry analysis.

[3] = test system: TC-1 tumor; test: TC-1 subcutaneous tumor model; format: in vivo
Method: (FIG. 2A) MC38 cells were subcutaneously transplanted into C57BL/6 WT (n=5-6/group) and Rag1 KO mice (n=5/group), respectively. Tumor bearing mice were treated with β-lap (0.3 mg, i.t.) every other day for four times. […] (FIG. 2B) MC38 tumor bearing C57BL/6 mice (n=5/group) were treated with β-lap (0.3 mg, i.t.) every other day for four times. For CD8^+ T cell depletion, 200 μg of anti-CD8 antibodies were intraperitoneally injected four times at three days interval during the treatment. (FIG. 2C) TC-1 tumor bearing C57BL/6 mice (n=4-5/group) were treated with β-lap (0.1 mg, i.t.) for four times with or without anti-CD8 antibodies. […] (FIG. 2E) 2×10^6 A549 cells were subcutaneously injected into C57BL/6 Rag1^−/− mice (n=5/group for vehicle and β-lap; n=7/group for vehicle+OT-1 and β-lap+OT-1). 30 days later, the mice were i.v. adoptively transfected with 2×10^6 lymph node cells from OT-1 transgenic mice. On the following day, tumor-bearing mice were intratumorally treated with β-lap (0.2 mg) every other day for 4 times. (FIG. 2F) A549 cells were subcutaneously injected into NSG-SGM3 (n=5/group) or NSG-SGM3 harboring human CD34^+ hematopoietic stem cells (n=5/group for Hu-NSG vehicle; n=6/group for Hu-NSG β-lap). Tumor bearing mice were treated with β-lap (0.2 mg, i.t.) every other day for four times. Tumor growth was measured twice a week.
(FIG. 15A) C57BL/6J WT or rag−/− mice (n=5/group) were inoculated subcutaneously (s.c.) with 6×10^5 MC38 cells and treated intratumorally (i.t.) with 0.15 mg of IB-DNQ or vehicle on day 10, day 12, day 14 and day 16. (FIG. 15B) C57BL/6J WT or rag−/− mice (n=5/group) were inoculated subcutaneously (s.c.) with 1×10^5 TC-1 cells and treated intratumorally (i.t.) with 0.15 mg of IB-DNQ or vehicle on day 10, day 12, day 14 and day 16. Tumor diameters were measured by calipers twice a week. Tumor volume is presented as mean±SD. *p<0.05, **p<0.01, ***P<0.001.
FIGS. 17A-I (related to FIGS. 1A-J). […] (FIG. 17A) NQO1 expression in different murine cancer cell lines was determined by western blotting assay. […] (FIG. 17C) MC38 cells (NQO1 WT or KO) were treated with β-lap for 3 hr followed by washing and replacing fresh medium. Cell viability was determined by Sulforhodamine B (SRB) Assay 48 hr later. […] (FIG. 17E, FIG. 17F) B16 cells (NQO1 null or stable overexpression) were treated with β-lap with or without dicoumarol (DIC, 50 μM) for 3 hr followed by washing and replacing medium. Cell viability was determined by SRB Assay 48 hr later. […] Catalase (1000 U/ml) was added and cell viability was assessed 48 hr later. (FIG. 17H) C57BL/6 mice (n=5/group) were transplanted with TC-1 cells, and intratumorally treated with β-lap (0.1 or 0.3 mg) every other day for four times. Tumor growth was monitored twice a week. […] Data are shown as mean±SEM. **P<0.01, ***P<0.001, ****P<0.0001 determined by unpaired student t-test (FIG. 17G) or two-way ANOVA (FIG. 17H and FIG. 17I).
6×10^5 MC38 or 8×10^5 MC38 NQO1 KO cells were subcutaneously transplanted into Rag1^−/−, C57BL/6, and NSG mice, respectively (n=5/group). Tumor-bearing mice were treated with IB-DNQ (12 mg/kg, i.t.) or 20% HPβCD (Vehicle) every other day for four times after tumor volumes reached to 50 mm^3.

CC1(C)CCC2=C(O1)c1ccccc1C(=O)C2=O [β-lap, β-lapachone] was tested, and the “response to β-lap (cell survival)” value [1] was “sensitivity to β-lap”, the “mode of cell death” value [2] was “rapid cell swelling, membrane rupture and Annexin V+/7AAD+ cell death without caspase activation” and the “tumor response in WT mice” value ([3]; 3 doses of β-lap (0.3 mg i.t.)) was “tumor regression occurred”. The “tumor response in rag−/− mice” value ([3]; 3 doses of β-lap (0.3 mg i.t.)) was “but not in adaptive immune-deficient rag^−/− mice”, the “antitumor efficacy in STING deficient mice” value ([3]; β-lap 0.3 mg i.t.) was “significantly impaired the antitumor efficacy” and the tumor growth ([3]; β-lap 0.1 or 0.3 mg i.t. every other day four times) was “significant tumor suppression”. The “tumor growth inhibition with anti-CD8 antibody” value ([3]; β-lap + anti-CD8 antibody versus β-lap alone) was “complete failure of tumor growth inhibition”.

Reference: patent US20220160703A1, “TUMOR-SELECTIVE COMBINATION THERAPY” (The Board of Regents of The University of Texas System, priority 2019, published 2022)
